Assay results as given in publication PMC8307506, “Identification of Dihydromyricetin and Metabolites in Serum and Brain Associated with Acute Anti-Ethanol Intoxicating Effects in Mice” (International Journal of Molecular Sciences, 2021).

Test: Quantification of DHM in brain samples
Type: in vivo, mice
Conditions: for Brain Concentration 15 min post DHM: mean ± SEM
Protocol: Eight-week-old male and female C57BL/6J mice (Jackson’s Laboratories, Bar Harbor, ME, USA) were housed 4 mice to a cage (separated by sex) and maintained on 12-h light, 12-h dark cycles (lights on at 0700 h) in the animal facility at the Department of Animal Sciences, Rutgers University. Following 1-week acclimation, animals were given ad libitum access to water and a polyphenol-free diet (PFD; 3.82 kcal/g, 10% fat, 20% protein, 70% carbohydrate; D12450H; Research Diets, Inc., New Brunswick, NJ, USA) for at least 10 days. For PK studies, after an overnight fast, mice were administered 50 mg/kg DHM (dissolved in 0.9% saline with 10% DMSO) by either IP injection or oral gavage. Oral gavage was performed using single-use, sterile plastic feeding tubes for mice (20 ga × 30 mm; cat# FTP-20-30, Instech Laboratories, (Plymouth Meeting, PA, USA). Mice were deeply anesthetized with 5% isoflurane mixed with oxygen, and blood was collected by cardiac puncture. Following cardiac puncture, animals were exsanguinated and transcardial perfusion with 0.9% saline was performed to ensure blood removal from the brain tissue. Blood and brain samples were collected from a total of 85 mice at 0.25, 0.75, 1.5, 3, 6, 12, 24 h (3–4 mice for each sex and timepoint). Tissues were immediately homogenized with 0.2% formic acid at 1:2 (w/v), and frozen at −80 °C until analysis. Blood was centrifuged at 3000× g for 10 min at 4 °C to isolate serum. For efficacy studies, mice (n = 8/sex) were fasted at 5 h prior to Ethanol gavage 5 g/kg (37% Ethanol in water). DHM 50 mg/kg IP (dissolved in 0.9% saline with 10% DMSO) was administered at 0, 15, 45, 90 and 180 min prior to Ethanol oral gavage. Each mouse was tested at each time point 7 days apart over 6-week period. At the time of Ethanol gavage, mice were placed in oversized conical holders (L: 152 mm X W: 37 mm) and observed for ability to return upright upon being placed in a supine position. Duration of LORR was determined by ability to return upright 3 times within 30 s. To determine whether ethanol-induced tolerance developed, one week (Week 1; Baseline) prior to the 6-week repeated DHM dosing study all mice were oral dose with ethanol (5 g/kg) without any IP injection and LORR was measured. Mice were then re-tested in a similar fashion with oral ethanol 1 week after the DHM 6-week period (Week 8; Post). […] All animal studies were approved by the Institutional Animal Care and Use Committee of Rutgers University (Bello; PROTO999900014, OLAW #A3262-01, 15 March 2017) and complied with NIH Guide for the Care and Use of Laboratory Animals.
Whole brain samples were homogenized in FA. All brain homogenates were stored at −80 °C and conditioned to room temperature prior to analysis. An aliquot of 300 µL of brain homogenate was added to 50 µL IS solution (417 ng/mL in EtOAc) and 500 µL of EtOAc in an Eppendorf tube. Samples were then vortexed for 30 s and sonicated for 1 min. Samples were centrifuged for 2 min at 3000× g and the supernatant transferred to a glass vial with 10 µL of 2% ascorbic acid in methanol. Samples were extracted two more times with 500 µL EtOAc and the supernatant transferred to the corresponding vial and dried under vacuum. Each sample was then reconstituted with 100 µL of 45% MeOH with 0.1% FA, centrifuged, and aliquoted into an HPLC vial for analysis.
An Agilent 1290 Infinity II UPLC system interfaced with an Agilent 6470 Triple Quadrupole Mass Spectrometer with an electrospray ionization source (Agilent Technology, Palo Alto, CA, USA) was used for sample analysis. An Waters Acquity UPLC BEH C8 column (2.1 × 150 mm, 1.7 μm) (Milford, MA, USA) column with a VanGuard Acquity C8 guard column (2.1 × 5 mm, 1.7 μm) (Milford, MA, USA) was used for chromatographic separation. The binary mobile phases consisted of water with 0.1% FA (phase A) and acetonitrile (ACN) with 0.1% formic acid (phase B). The flow rate was set at 0.450 mL/min. […]

Concentration in brain tissue (15 min post DHM 50 mg/kg PO or IP, male and female mice, range over groups): 50.9 to 861.5 nmol/g
Detection of DHM in brain samples (45 min or longer post PO or IP administration of DHM 50 mg/kg): not detected
Brain Concentration 15 min post DHM (female mice, DHM 50 mg/kg IP): 864 ± 220 nmol/g
Brain Concentration 15 min post DHM (female mice, DHM 50 mg/kg PO): 50.9 ± 2.6 nmol/g
Brain Concentration 15 min post DHM (male mice, DHM 50 mg/kg IP): 672 ± 85 nmol/g
Brain Concentration 15 min post DHM (male mice, DHM 50 mg/kg PO): 423 ± 66 nmol/g
SMILES: O=C1c2c(O)cc(O)cc2O[C@H](c2cc(O)c(O)c(O)c2)[C@H]1O [DHM, Dihydromyricetin]
